In patent US20190337971A1, “PANTETHEINE DERIVATIVES FOR THE TREATMENT OF NEUROLOGIC DISORDERS” (Retrophin, Inc., priority 2016, published 2019):
Like-named read-outs stand apart in the source and are kept apart here.

Experiments:
PANK2−/− IMR32 cells = experiment: Coenzyme A assay in PANK2 silenced cells (LC-MS quantification of free CoA); type: cell-based, human; conditions: fold increase in CoA levels relative to controls, treated twice, 24 h + 24 h; for fold induction at 50 µM: compound concentration 50 uM; for fold induction at 1 µM: compound concentration 1 uM
Description: A human neuroblastoma IMR32 cell line (ATCC) with stably PANK2 silencing was obtained by lentiviral-delivered small hairpin RNA and cultured in MEM (Invitrogen) supplemented with 10% fetal bovine serum, 2 mM glutamine, 1% penicillin-streptomycin, 1 mM sodium pyruvate, 1 mM non-essential amino acids, and 1.5 g/l sodium bicarbonate.
A non-silencing shRNA construct (scrambled shRNA) and an empty vector expressing GFP alone were used as negative controls. The GFP tag subcloned into the lentiviral vectors was used to monitor the transfection efficiency.
Three days after transduction medium was removed and replaced with fresh medium containing […] puromycin. […] The level of PANK2 expression in selected clones was assessed by Western Blot analysis.
To quantify CoA, PANK2−/− IMR32 cells were plated on 12-well culture plates (Corning) at a density of 0.2×10^6 cells per well. […] Controls with medium containing 0.1% DMSO without test compounds were also included in each plate. […] Before LC-MS analysis of CoA levels, cells were harvested, counted, and collected in a 15 ml falcon tube and centrifuged at 200×g for 5 min at 4° C. Supernatant was removed and cell pellet was washed in 10 ml of ice-cold PBS. To further confirm that the numbers of cells in each sample were equivalent, an equal fraction of pellet was collected from each sample and subjected to protein determination analysis. After centrifugation and supernatant removal, the cell pellet was rapidly frozen in Liquid Nitrogen and stored at −80° C. until analysis.
Intracellular CoA levels were calculated considering an intracellular volume of 1 million cells=2 μl.
The 1*10^6 cellular pellet was extracted with 120 μl of aqueous 20% TFA.
100 μL samples of supernatant were dried under N2 at 20° C. in the dark.
Samples were re-dissolved in 100 μl of 10 mM NH4^+ AcO^− buffer pH 5.1+IS (Dextrorphan 50 ng/ml), stirred for 2 min, sonicated in ultrasonic bath for 1 min, then stirred again for 1 min, and injected into LC-MS.
LC-MS/MS was performed using an Agilent HPLC (1100 Series, USA). The LC system was interfaced with an API-4000 Q-Trap triple quadrupole mass spectrometer (AB Sciex, Toronto, Canada) equipped with a TurboIonSpray ionization source operating in positive ion mode. Analyst™ software version 1.6 (AB Sciex, Toronto, Canada) was used for data acquisition and processing. CoA was separated using a Luna C18 column (2.0×50 mm; 5 μm particle size), column at 25° C. and flow rate of 0.2 ml/min. Injection volume was 15 μl. The mobile phases consisted of water containing 10 mM ammonium acetate pH 7 (mobile phase A) and MeCN-2-propanol 9:1 (mobile phase B).
Results are expressed as fold increase in CoA levels relative to controls (using LC-MS quantification of free CoA).

[1] = Stability in human whole blood; type: in vitro ADME; conditions: 37° C., up to 60 min
Description: The stability of selected compounds in human whole blood was evaluated according to the following protocol. Compounds and positive control samples were dissolved in 100% DMSO at 3 mM (stock solution). To investigate the stability of the test compounds in whole blood, a 200 μM working solution (WS) in water has been prepared by adding 66.66 μl of each 3 mM stock solution to 933.34 μl of water (6.66% DMSO content). After pre-incubation of the whole blood at 37° C. for 5 min in an eppendorf, 10.5 μl of each working solution were spiked into 689.5 μl of heated blood. The obtained 3 μM solution in blood (0.1% DMSO content) was quickly stirred and 100 μl for each time point were transferred to an eppendorf. Each compound was tested in duplicate at five time points (10, 20, 30, 40 and 60 min). At each time point, the reaction was stopped by quenching the spiked blood (100 μl) with 400 μl of 100% acetonitrile containing 0.1% formic acid. Then samples were centrifuged at 15600 rpm for 15 min at +4° C. and 200 μl of supernatant were transferred to a 96-deepwell plate. Samples were evaporated under N2 and reconstituted in H2O/ACN 0.1% formic Acid (98/2 v/v) containing the appropriate internal standard. Analysis was performed without a calibration curve by using an Acquity-UPLC (Waters) coupled to a triple quadrupole mass spectrometer (SciexAPI4000). Time point 0 was obtained by adding 3 μL of each 200 μM working solution to 997 μL of the supernatant obtaining after centrifugation (15600 rpm for 15 min at +4° C.) of the blank matrix quenched with acetonitrile containing 0.1% formic acid.
Stability was determined based on analysis of disappearance of the compounds as a function of incubation time. Quantification of test compounds was measured as a peak area relative to an internal standard. The elimination constant k and half-life (t1/2) were determined as described above in Example 7.

[2] = Diastereoisomer B, read-out: t1/2 (h) Human Whole Blood Diastereoisomer B (converted)
[3] = Diastereoisomer A (upfield shift in 31P NMR), read-out: t1/2 (h) Human Whole Blood Diastereoisomer A (converted)

## COC(=O)[C@@H](N[P@]1(=O)OCC(C)(C)[C@H](C(=O)NCCC(=O)NCCSC(C)=O)O1)C(C)C [R1015, methyl ((2S,4R)-4-((3-((2-(acetylthio)ethyl)amino)-3-oxopropyl)carbamoyl)-5,5-dimethyl-2-oxido-1,3,2-dioxaphosphinan-2-yl)-L-valinate]
PANK2−/− IMR32 cells; Homo sapiens, IMR-32
  fold induction at 50 µM: 2.1
[1]; [2]
  half-life at 3 μM: > 1 h

## CC(=O)SCCNC(=O)CCNC(=O)[C@@H]1OP(=O)(OCOC(=O)NC(C)(C)COC(=O)[C@@H](N)C(C)C)OCC1(C)C (stereo partly drawn) [R1012, 2-((((((4R)-4-((3-((2-(acetylthio)ethyl)amino)-3-oxopropyl)carbamoyl)-5,5-dimethyl-2-oxido-1,3,2-dioxaphosphinan-2-yl)oxy)methoxy)carbonyl)amino)-2-methylpropyl L-valinate]
PANK2−/− IMR32 cells; Homo sapiens, IMR-32
  fold induction at 50 µM: 1.5
[1]; [3]
  half-life at 3 μM: 0.41 h

## COC(=O)[C@H](CSC(=O)C(C)(C)C)NC(=O)OCOP1(=O)OCC(C)(C)[C@H](C(=O)NCCC(=O)NCCSC(C)=O)O1 (stereo partly drawn) [R1020, methyl N-(((((4R)-4-((3-((2-(acetylthio)ethyl)amino)-3-oxopropyl)carbamoyl)-5,5-dimethyl-2-oxido-1,3,2-dioxaphosphinan-2-yl)oxy)methoxy)carbonyl)-S-pivaloyl-L-cysteinate]
PANK2−/− IMR32 cells; Homo sapiens, IMR-32
  fold induction at 50 µM: 74.2
[1]; [3]
  half-life at 3 μM: 0.65 h

## CC(=O)SCCNC(=O)CCNC(=O)[C@@H]1O[P@](=O)(OCOC(=O)NCCOC(=O)C(C)(C)C)OCC1(C)C [R1031, 2-((((((2R,4R)-4-((3-((2-(acetylthio)ethyl)amino)-3-oxopropyl)carbamoyl)-5,5-dimethyl-2-oxido-1,3,2-dioxaphosphinan-2-yl)oxy)methoxy)carbonyl)amino)ethyl pivalate]
PANK2−/− IMR32 cells; Homo sapiens, IMR-32
  fold induction at 50 µM: 23.2
[1]; [3]
  half-life at 3 μM: 0.41 h
[1]; [2]
  half-life at 3 μM: 0.25 h

## CC(=O)OCOP1(=O)OCC(C)(C)[C@H](C(=O)NCCC(=O)NCCSC(C)=O)O1 (stereo partly drawn) [R1022, (((4R)-4-((3-((2-(acetylthio)ethyl)amino)-3-oxopropyl)carbamoyl)-5,5-dimethyl-2-oxido-1,3,2-dioxaphosphinan-2-yl)oxy)methyl acetate]
PANK2−/− IMR32 cells; Homo sapiens, IMR-32
  fold induction at 50 µM: 114
[1]; [3]
  half-life at 3 μM: < 0.16 h
[1]; [2]
  half-life at 3 μM: < 0.16 h

## CC(=O)SCCNC(=O)CCNC(=O)[C@@H]1OP(=O)(OCOC(=O)N[C@@H](CSC(=O)C(C)(C)C)C(=O)O)OCC1(C)C (stereo partly drawn) [R1013, N-(((((4R)-4-((3-((2-(acetylthio)ethyl)amino)-3-oxopropyl)carbamoyl)-5,5-dimethyl-2-oxido-1,3,2-dioxaphosphinan-2-yl)oxy)methoxy)carbonyl)-S-pivaloyl-L-cysteine]
PANK2−/− IMR32 cells; Homo sapiens, IMR-32
  fold induction at 50 µM: 1
[1]; [3]
  half-life at 3 μM: 0.78 h
[1]; [2]
  half-life at 3 μM: 0.6 h

## CC(=O)SCCNC(=O)CCNC(=O)[C@@H]1OP(=O)(OCOC(=O)NCCSC(=O)[C@@H](N)C(C)C)OCC1(C)C (stereo partly drawn) [R1021, S-(2-((((((4R)-4-((3-((2-(acetylthio)ethyl)amino)-3-oxopropyl)carbamoyl)-5,5-dimethyl-2-oxido-1,3,2-dioxaphosphinan-2-yl)oxy)methoxy)carbonyl)amino)ethyl) (2S)-2-amino-3-methylbutanethioate]
PANK2−/− IMR32 cells; Homo sapiens, IMR-32
  fold induction at 50 µM: 3.7
[1]; [3]
  half-life at 3 μM: 0.32 h

## CC(=O)SCCNC(=O)CCNC(=O)[C@@H]1OP(=O)(OCOC(=O)c2ccccc2)OCC1(C)C (stereo partly drawn) [R1009, (((4R)-4-((3-((2-(acetylthio)ethyl)amino)-3-oxopropyl)carbamoyl)-5,5-dimethyl-2-oxido-1,3,2-dioxaphosphinan-2-yl)oxy)methyl benzoate]
PANK2−/− IMR32 cells; Homo sapiens, IMR-32
  fold induction at 1 µM: 69.5

## CC(=O)SCCNC(=O)CCNC(=O)[C@@H]1O[P@@](=O)(OCOC(=O)NCCOC(=O)C(C)(C)C)OCC1(C)C [R1030, 2-((((((2S,4R)-4-((3-((2-(acetylthio)ethyl)amino)-3-oxopropyl)carbamoyl)-5,5-dimethyl-2-oxido-1,3,2-dioxaphosphinan-2-yl)oxy)methoxy)carbonyl)amino)ethyl pivalate]
PANK2−/− IMR32 cells; Homo sapiens, IMR-32, compound concentration 10 uM
  fold induction at 10 µM: 7.1

## CC(=O)SCCNC(=O)CCNC(=O)[C@@H]1OP(=O)(OCOC(=O)NCCOC(=O)[C@@H](N)C(C)C)OCC1(C)C (stereo partly drawn) [R1032, 2-((((((4R)-4-((3-((2-(acetylthio)ethyl)amino)-3-oxopropyl)carbamoyl)-5,5-dimethyl-2-oxido-1,3,2-dioxaphosphinan-2-yl)oxy)methoxy)carbonyl)amino)ethyl L-valinate]
PANK2−/− IMR32 cells; Homo sapiens, IMR-32
  fold induction at 50 µM: 1

## CC(=O)SCCNC(=O)CCNC(=O)[C@@H]1OP(=O)(OCOC(=O)N[C@@H](CSC(=O)C(C)(C)C)C(=O)OCc2ccccc2)OCC1(C)C (stereo partly drawn) [R1029, benzyl N-(((((4R)-4-((3-((2-(acetylthio)ethyl)amino)-3-oxopropyl)carbamoyl)-5,5-dimethyl-2-oxido-1,3,2-dioxaphosphinan-2-yl)oxy)methoxy)carbonyl)-S-pivaloyl-L-cysteinate]
PANK2−/− IMR32 cells; Homo sapiens, IMR-32
  fold induction at 50 µM: 120

## CC(=O)SCCNC(=O)CCNC(=O)[C@@H]1O[P@](=O)(OCOC(=O)c2cc(C(C)(C)C)n[nH]2)OCC1(C)C [R1019, (((2R,4R)-4-((3-((2-(acetylthio)ethyl)amino)-3-oxopropyl)carbamoyl)-5,5-dimethyl-2-oxido-1,3,2-dioxaphosphinan-2-yl)oxy)methyl 3-(tert-butyl)-1H-pyrazole-5-carboxylate]
PANK2−/− IMR32 cells; Homo sapiens, IMR-32
  fold induction at 1 µM: 28.8
[1]; [2]
  half-life at 3 μM: < 0.16 h

## COc1ccc(C(=O)OCOP2(=O)OCC(C)(C)[C@H](C(=O)NCCC(=O)NCCSC(C)=O)O2)cc1 (stereo partly drawn) [R1035, (((4R)-4-((3-((2-(acetylthio)ethyl)amino)-3-oxopropyl)carbamoyl)-5,5-dimethyl-2-oxido-1,3,2-dioxaphosphinan-2-yl)oxy)methyl 4-methoxybenzoate]
PANK2−/− IMR32 cells; Homo sapiens, IMR-32
  fold induction at 1 µM: 18

## CC(=O)SCCNC(=O)CCNC(=O)[C@@H]1OP(=O)(Oc2ccccc2)OCC1(C)C (stereo partly drawn) [R1043, S-(2-(3-((4R)-5,5-dimethyl-2-oxido-2-phenoxy-1,3,2-dioxaphosphinane-4-carboxamido)propanamido)ethyl) ethanethioate]
PANK2−/− IMR32 cells; compound concentration 10 uM
  PANK2−/− CoA Fold increase: 1.1 fold

## CC(=O)SCCNC(=O)CCNC(=O)[C@@H]1OP(=O)(OCOC(=O)c2ccnn2C)OCC1(C)C (stereo partly drawn) [R1011, (((4R)-4-((3-((2-(acetylthio)ethyl)amino)-3-oxopropyl)carbamoyl)-5,5-dimethyl-2-oxido-1,3,2-dioxaphosphinan-2-yl)oxy)methyl 1-methyl-1H-pyrazole-5-carboxylate]
PANK2−/− IMR32 cells; Homo sapiens, IMR-32
  fold induction at 50 µM: 102
[1]; [3]
  half-life at 3 μM: 0.42 h
[1]; [2]
  half-life at 3 μM: < 0.16 h
